Laboratory results taken from US8993589B2, “Imidazopyridine derivatives which inhibit the secretion of gastric acid” (priority 2008, dated 2015).

Tested on: acid secretion in female rats
Experiment: Inhibiting effect on acid secretion in female rats
Format: in vivo, rat (Sprague-Dawley
Details: rats administered 1 μmol/kg
Description: Inhibiting Effect on Acid Secretion in Female Rats
Female rats of the Sprague-Dawley strain were used. They were equipped with cannulated fistulae in the stomach (lumen) and the upper part of the duodenum, for collection of gastric secretions and administration of test substances, respectively. A recovery period of 14 days after surgery was allowed before testing commenced.
Before secretory tests, the animals were deprived of food but not water for 20 h. The stomach was repeatedly washed through the gastric cannula with tap water (+37° C.), and 6 ml Ringer-Glucose given subcutaneously. […] Gastric juice samples were titrated to pH 7.0 with NaOH, 0.1M, and acid output calculated as the product of titrant volume and concentration.
Further calculations were based on group mean responses from 4-6 rats. In the case of administration during stimulation, the acid output during the periods after administration of test substance or vehicle were expressed as fractional responses, setting the acid output in the 30-min period preceding administration to 1.0. Percentage inhibition was calculated from the fractional responses elicited by test compound and vehicle. In the case of administration before stimulation, percentage inhibition was calculated directly from acid output recorded after test compound and vehicle. […]

| SMILES | maximal inhibition of acid secretion [%] |
| --- | --- |
| Cc1cccc(C)c1CNc1cc(C(=O)NCCOC(=O)CCCC(=O)O)cn2c(C)c(C)nc12 [Example 1, 5-{2-[({8-[(2,6-dimethylbenzyl)amino]-2,3-dimethylimidazo[1,2-a]pyridin-6-yl}carbonyl)amino]ethoxy}-5-oxopentanoic acid] | 100 |
| Cc1cccc(C)c1CNc1cc(C(=O)NCCOC(=O)CCC(=O)O)cn2c(C)c(C)nc12 [Example 2, 4-{2-[({8-[(2,6-dimethylbenzyl)amino]-2,3-dimethylimidazo[1,2-a]pyridin-6-yl}carbonyl)amino]ethoxy}-4-oxobutanoic acid] | 70 |
